The numbers were not newly measured in patent US20040109886A1 (priority 2002, published 2004), which cites them from elsewhere.

The term pKa denotes the negative logarithm of the acid dissociation constant.

For series [1] the following is noted: base.

The structures appear in SMILES notation.

Regarding `O=C(CCCN1CC=C(n2c(=O)[nH]c3ccccc32)CC1)c1ccc(F)cc1` [droperidol], the pKa in series [1] is 7.64. Besides, the “solubility in acidic water” value (acidic water) is “soluble”. Moreover, the solubility in alcohol entry (alcohol) is “high solubility”.
